Source: patent publication US20250205162A1, “SYSTEMS AND METHODS FOR SMALL MOLECULE ENCAPSULATION” (Tecton Group, LLC, priority 2022, published 2025)

Key:
pH in water = assay type: physicochemical; conditions: aqueous solution
[1] = humans; cited from earlier work

In the case of `C[C@@H](O)CC(=O)OC(CO)CO` [KM, 1,3 Dihydroxypropan-2-yl (R)-3-hydroxybutanoate], the pH in water (pH in water) is reported as 4.5.
For `Cn1c(=O)c2c(n(C)c1=O)n(C)c(=O)n2C` [TH, theacrine], the safe daily use [1] is given as “up to 300 mg/day”.
Work on nicotinamide riboside [NR] yielded a pH in water (pH in water) of 4.0.
